The numbers were not newly measured in patent US9820973B2, “Pharmaceutical formulation comprising losartan potassium and chlorthalidone” (Merck Sharp & Dohme B.V., priority 2013, dated 2017), which cites them from elsewhere.

With `NS(=O)(=O)c1cc(C2(O)NC(=O)c3ccccc32)ccc1Cl` (racemic) [chlorthalidone, (RS)-2-chloro-5-(1-hydroxy-3-oxo-2,3-dihydro-1H-isoindol-1-yl)benzene-1-sulfonamide], the “Solubility (in words)” value (across the physiologic pH range) is reported as “low solubility”.

Regarding `CCCCc1nc(Cl)c(CO)n1Cc1ccc(-c2ccccc2-c2nnn[nH]2)cc1` [Losartan potassium, 2-butyl-4-chloro-1-[p-(o-1H-tetrazol-5-ylphenyl)-benzyl]imidazole-5-methanol], the “Behaviour of the salt (in words)” value (acidic media) was “the salt dissociates and the losartan free acid precipitates as a gel layer”. Besides, for the setting “neutral to basic media”, the “Dissolution of the salt (in words)” value is “readily dissolves”.
